From ChEMBL document CHEMBL1201862, “PubChem BioAssay data set” (2004) come the findings set out here.

Test systems include EKVX; HL-60; HOP-62; HT-29; Hs-578T; IGROV-1; K562; LOX IMVI; M14; NCI-H226; OVCAR-3; OVCAR-5; RPMI-8226; RXF 393; SK-MEL-2; SK-OV-3; TK-10; U-251; UACC-257; UO-31.
Holding throughout (assay): DTP human tumour cell line panel, 48 h

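Values below derive from 48-hour exposures of cells grown in 96-well plates, with endpoints linearly interpolated between the two concentrations bracketing the appropriate inhibition level. The concentration for 50% growth inhibition is given as GI50.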 Active and inactive are the calls of the source. No stated cut-off is given here; in the data, active = GI50 up to about 1.1 µM and inactive = higher.

In the case of `CC(=O)O[C@H]1CC[C@@]2(C)C(=CC[C@@H]3[C@@H]2CC[C@]2(C)c4nc(N)c(C#N)cc4C[C@@H]32)C1`, the GI50 was 27.9 µM (inactive) with EKVX; 12.2 µM (inactive) in the assay on HL-60; 8.34 µM (inactive) with HOP-62; 9.82 µM (inactive) in the assay with HT-29; 24.9 µM (inactive) in the assay on Hs-578T; 34.3 µM (inactive) in the assay with IGROV-1. The GI50 in the assay with K562 is 15.8 µM (inactive); in the assay on LOX IMVI, 32.2 µM (inactive); in the assay on M14, > 87.5 µM (inactive); in the assay on NCI-H226 it was > 100 µM (inactive); in the assay with OVCAR-3, 1.75 µM (inactive); in the assay on OVCAR-5 it was > 85.3 µM (inactive). Besides, the GI50 is 5.83 µM (inactive) in the assay on RPMI-8226; 10.7 µM (inactive) with RXF 393; 35.9 µM (inactive) in the assay with SK-MEL-2; 38.2 µM (inactive) in the assay on SK-OV-3; 27.2 µM (inactive) with TK-10; 43.9 µM (inactive) with U-251. Moreover, the GI50 in the assay on UACC-257 was 27.2 µM (inactive); in the assay with UO-31 it was > 100 µM (inactive).
As for `COc1ccc(N2C(=O)/C(=C/c3ccc(N(CCC#N)CCC#N)cc3C)N=C2c2cc([N+](=O)[O-])ccc2Cl)cc1`, the GI50 in the assay with EKVX is 14.5 µM (inactive); in the assay with HL-60 it was 3.62 µM (inactive); in the assay with HOP-62, 5.46 µM (inactive); with HT-29 it was 4.07 µM (inactive); in the assay with Hs-578T it was 1.54 µM (inactive); with IGROV-1 it was 19.7 µM (inactive). In addition, the GI50 with K562 was 2.62 µM (inactive); in the assay on LOX IMVI, 6.43 µM (inactive); in the assay with M14, 4.67 µM (inactive); with NCI-H226, 17 µM (inactive); with OVCAR-3, 3.35 µM (inactive); in the assay with OVCAR-5, 25.4 µM (inactive). Moreover, the GI50 with RPMI-8226 is 4.18 µM (inactive); in the assay on RXF 393 it was 4.61 µM (inactive); in the assay on SK-MEL-2, 6.15 µM (inactive); in the assay with SK-OV-3, 4.54 µM (inactive); in the assay on TK-10, 21.6 µM (inactive); in the assay on U-251, 4.42 µM (inactive). The results for the GI50 with UACC-257 and with UO-31 were 46.3 µM (inactive) and 5.19 µM (inactive), respectively.
Consider `COC(=O)c1c(C)cccc1C1CN=NC12Cc1c(C)cccc1C2=O` (stereo not given), for which the GI50 in the assay with EKVX is 24.8 µM (inactive); in the assay on HL-60 it was 34.9 µM (inactive); with HOP-62, > 100 µM (inactive); in the assay with HT-29 it was 90.2 µM (inactive); with Hs-578T, 80.2 µM (inactive); in the assay with IGROV-1, > 100 µM (inactive). For the same compound, the GI50 is 37.2 µM (inactive) in the assay on K562; 50.9 µM (inactive) in the assay with LOX IMVI; 83.2 µM (inactive) in the assay with M14; > 100 µM (inactive) in the assay with NCI-H226; 45.2 µM (inactive) in the assay on OVCAR-3; > 100 µM (inactive) with OVCAR-5. Moreover, the GI50 in the assay on RPMI-8226 is 46.5 µM (inactive); in the assay with RXF 393 it was > 100 µM (inactive); with SK-MEL-2 it was 99.3 µM (inactive); in the assay with SK-OV-3, > 100 µM (inactive); in the assay with TK-10, > 100 µM (inactive); with U-251 it was > 100 µM (inactive). Besides, the values for the GI50 in the assay with UACC-257 and with UO-31 were 43.4 µM (inactive) and 24 µM (inactive), respectively.
For `CCOS(=O)(=O)c1ccc(-c2c3nc(c(-c4ccc(S(=O)(=O)OCC)cc4)c4ccc([nH]4)c(-c4ccc(S(=O)(=O)OCC)cc4)c4nc(c(-c5ccc(S(=O)(=O)OCC)cc5)c5ccc2[nH]5)C=C4)C=C3)cc1`, the GI50 with EKVX was > 31.6 µM (inactive); with HL-60, > 31.6 µM (inactive); in the assay with HOP-62, > 10 µM (inactive); in the assay on HT-29, > 100 µM (inactive); with Hs-578T, > 31.6 µM (inactive); in the assay with IGROV-1, > 100 µM (inactive). The GI50 was > 10 µM (inactive) in the assay on K562; > 10 µM (inactive) with LOX IMVI; > 31.6 µM (inactive) in the assay with M14; 18.3 µM (inactive) in the assay on NCI-H226; > 10 µM (inactive) in the assay with OVCAR-3; > 31.6 µM (inactive) in the assay on OVCAR-5. Besides, the GI50 in the assay on RPMI-8226 is > 31.6 µM (inactive); in the assay with RXF 393 it was 17.2 µM (inactive); in the assay on SK-MEL-2, > 31.6 µM (inactive); in the assay on SK-OV-3, > 31.6 µM (inactive); in the assay on TK-10, > 31.6 µM (inactive); with U-251, > 31.6 µM (inactive). For the same compound, the GI50 is > 31.6 µM (inactive) with UACC-257 and 24.8 µM (inactive) in the assay with UO-31.
`Cc1c2ccncc2cc2c1sc1ccncc12`: the GI50 was 3.17 µM (inactive) in the assay on EKVX; 0.877 µM (active) in the assay with HL-60; 1.74 µM (inactive) with HOP-62; 2.73 µM (inactive) with HT-29; 2.39 µM (inactive) with Hs-578T; 3.47 µM (inactive) in the assay with IGROV-1. For the same compound, the GI50 in the assay with K562 was 4.14 µM (inactive); in the assay with LOX IMVI, 1.57 µM (inactive); in the assay with M14 it was 4.53 µM (inactive); in the assay on NCI-H226 it was 0.684 µM (active); with OVCAR-3, 6.56 µM (inactive); in the assay with OVCAR-5 it was 3.18 µM (inactive). Further, the GI50 with RPMI-8226 is 0.993 µM (active); with RXF 393 it was 5.24 µM (inactive); with SK-MEL-2 it was 6.17 µM (inactive); in the assay on SK-OV-3, 2.23 µM (inactive); in the assay with TK-10, 7.29 µM (inactive); in the assay on U-251 it was 2.22 µM (inactive). For the same compound, the results for the GI50 in the assay with UACC-257 and with UO-31 were 3.85 µM (inactive) and 1.27 µM (inactive), respectively.
Take `COc1ccccc1-c1cc(O)c2cccnc2n1`: the GI50 is 53.6 µM (inactive) in the assay on EKVX; 39.3 µM (inactive) in the assay with HL-60; > 100 µM (inactive) with HOP-62; 23.4 µM (inactive) with HT-29; 61 µM (inactive) with Hs-578T; 22.5 µM (inactive) in the assay on IGROV-1. For the same compound, the GI50 was 30.3 µM (inactive) with K562; 33 µM (inactive) in the assay on LOX IMVI; 38.4 µM (inactive) in the assay with M14; 49.7 µM (inactive) with NCI-H226; 36.5 µM (inactive) in the assay on OVCAR-3; > 100 µM (inactive) with OVCAR-5. Also, the GI50 with RPMI-8226 was 44.1 µM (inactive); in the assay on RXF 393, > 100 µM (inactive); in the assay on SK-MEL-2 it was 36.5 µM (inactive); in the assay with SK-OV-3 it was 58.1 µM (inactive); in the assay on TK-10, > 100 µM (inactive); in the assay with U-251, 40.3 µM (inactive). Also, the figures for the GI50 in the assay with UACC-257 and in the assay on UO-31 were 37.8 µM (inactive) and 70.3 µM (inactive), respectively.
In the case of `CN1C/C(=C\c2cccs2)C2=NN(C)C(c3cccs3)C2C1` (stereo not given), the GI50 was > 100 µM (inactive) in the assay with EKVX; 3.05 µM (inactive) with HL-60; > 100 µM (inactive) in the assay with HOP-62; 61.1 µM (inactive) with HT-29; > 100 µM (inactive) in the assay on Hs-578T; 32.4 µM (inactive) with IGROV-1. Further, the GI50 in the assay with K562 is 29.3 µM (inactive); in the assay with LOX IMVI, > 100 µM (inactive); with M14, 97.7 µM (inactive); in the assay on NCI-H226, > 100 µM (inactive); in the assay with OVCAR-3, 77.8 µM (inactive); in the assay with OVCAR-5, > 100 µM (inactive). Also, the GI50 is 24.8 µM (inactive) in the assay with RPMI-8226; > 100 µM (inactive) in the assay with RXF 393; 24 µM (inactive) in the assay with SK-MEL-2; > 100 µM (inactive) in the assay on SK-OV-3; > 100 µM (inactive) in the assay on TK-10; 22.8 µM (inactive) with U-251. The GI50 was > 100 µM (inactive) in the assay on UACC-257 and 75.7 µM (inactive) in the assay on UO-31.

One may read the GI50 as the concentration giving 50% growth inhibition.
